The text below walks through data of US20250340551A1, “SMALL MOLECULE MODULATORS OF STAT6” (Gilead Sciences, Inc., priority 2024, published 2025).

Test [1] relates to Eotaxin-3 (CCL26) release in human whole blood stimulated with IL-4. Briefly: Human whole blood eotaxin-3 assay (IL-4 stimulated, Eotaxin-3 release). Format: cell-based. The method in brief: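 Lithium-heparin blood preincubated 2 h at 37° C with 4-fold compound dilutions (0.5% DMSO, triplicates), then stimulated with 400 pM recombinant human IL-4 for 48 h. Eotaxin-3 in plasma supernatant measured by MSD immunoassay.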

The next test concerns the target human STAT6 (Homo sapiens (Human), UniProt P42226). Briefly: Surface plasmon resonance assay (Biacore 8K, binding to immobilized STAT6). As to conditions: human STAT6 aa122-658, N-terminal His-tag, CM5 chip, 25° C.; geometric mean; read-out: STAT6 SPR Kd. In a few lines: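 Run at 25° C with His-tagged STAT6 aa122-658 (insect-cell expressed) amine-coupled to a CM5 chip, reference-subtracted, in PBS-P+ with 2% DMSO. Multi-cycle kinetics: 60 sec. contact, up to 300 sec. dissociation. Affinity fitted from late report-point binding isotherms, with Rmax both free and fixed to theoretical 1:1.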
For orientation: SPR reads the build-up and loss of mass on a sensor chip optically.

human STAT6, sequence (P42226 122-658): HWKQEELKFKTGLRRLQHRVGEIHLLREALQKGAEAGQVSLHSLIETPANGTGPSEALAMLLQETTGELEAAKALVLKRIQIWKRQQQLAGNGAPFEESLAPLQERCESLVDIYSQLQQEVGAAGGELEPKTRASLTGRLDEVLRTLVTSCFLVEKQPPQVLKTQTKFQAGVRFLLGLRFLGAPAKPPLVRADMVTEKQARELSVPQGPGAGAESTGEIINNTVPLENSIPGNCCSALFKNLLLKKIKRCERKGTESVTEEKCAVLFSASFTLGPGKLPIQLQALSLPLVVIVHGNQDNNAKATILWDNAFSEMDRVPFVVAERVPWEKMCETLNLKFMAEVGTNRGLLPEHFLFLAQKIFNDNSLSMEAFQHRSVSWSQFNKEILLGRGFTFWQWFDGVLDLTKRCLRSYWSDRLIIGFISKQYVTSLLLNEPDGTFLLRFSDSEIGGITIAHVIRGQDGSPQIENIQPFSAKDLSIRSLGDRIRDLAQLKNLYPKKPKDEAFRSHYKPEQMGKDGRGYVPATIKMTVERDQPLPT

“4-[1-[[4-(6-Amino-2-methoxy-3-pyridyl)-1-methyl-pyrrolo[2,3-b]pyridin-2-yl]methyl]-4-piperidyl]-N,N-bis(trideuteriomethyl)benzamide [Example 1k44]”: the “Eotaxin-3 Emax (%)” value in test [1] (human whole blood, 400 pM recombinant human IL-4, 48 h, Emax provided for compounds with <80% Emax, geometric mean) came to 77%. Further, the dissociation constant (Kd) at human STAT6 turned out to be 25.6 nM.

Regarding “4-[1-[[4-(6-Amino-2-methyl-3-pyridyl)-1-methyl-pyrrolo[2,3-b]pyridin-2-yl]methyl]-4-piperidyl]-N,N-dimethyl-benzamide [Example 1k12]”, the EC50 in test [1] (human whole blood, 400 pM recombinant human IL-4, 48 h, EC50 provided for compounds with >80% Emax, geometric mean) came to 15700 nM. Also, the Kd at human STAT6 was determined as 20.1 nM.

In turn, `CNc1ccc(-c2ccnc3c2cc([C@@H](C)N2CCC(c4ccc(C(=O)N(C)C)cc4)CC2)n3C)cn1` (single isomer, unassigned) [Example 1af8] came in with an EC50 in test [1] (Homo sapiens, Hec50, 48 h) of 369 nM. Further, the Kd at human STAT6 amounted to 14.6 nM.

Compound `CNc1ccc(-c2ccnc3c2cc([C@H](C)N2CC=C(c4c(C)cc(C(=O)N(C)C)cc4F)CC2)n3C)cn1` [Example 1z37, (S)-3-fluoro-N,N,5-trimethyl-4-(1-(1-(1-methyl-4-(6-(methylamino)pyridin-3-yl)-1H-pyrrolo[2,3-b]pyridin-2-yl)ethyl)-1,2,3,6-tetrahydropyridin-4-yl)benzamide] yielded an EC50 in test [1] (Homo sapiens, Hec50, 48 h) of 439 nM.

For `CNc1ccc(-c2ccnc3c2cc([C@@H](C)N2CC=C(c4c(C)cc(C(=O)N(C)C)cc4F)CC2)n3C)cn1` [Example 1z38, (R)-3-fluoro-N,N,5-trimethyl-4-(1-(1-(1-methyl-4-(6-(methyl-amino)pyridin-3-yl)-1H-pyrrolo[2,3-b]pyridin-2-yl)ethyl)-1,2,3,6-tetrahydropyridin-4-yl)benzamide], the response in test [1] (Homo sapiens, Hec50, 48 h) was half-maximal at 12.9 nM (EC50).

Take `CNc1ccc(-c2ccnc3c2cc(C(C)N2CC=C(c4c(C)cc(C(=O)N(C)C)cc4F)CC2)n3C)nc1` (centres unmarked) [Example 1z39, 3-fluoro-N,N,5-trimethyl-4-(1-(1-(1-methyl-4-(5-(methylamino)pyridin-2-yl)-1H-pyrrolo[2,3-b]pyridin-2-yl)ethyl)-1,2,3,6-tetrahydropyridin-4-yl)benzamide]: in test [1] (Homo sapiens, Hec50, 48 h), a half-maximal response (EC50) required 301 nM. The same measure, in the same setting: the same measure for `CNc1ccc(-c2ccnc3c2cc([C@H](C)N2CC=C(c4c(C)cc(C(=O)N(C)C)cc4F)CC2)n3C)nc1` [Example 1z40, (S)-3-fluoro-N,N,5-trimethyl-4-(1-(1-(1-methyl-4-(5-(methylamino)pyridin-2-yl)-1H-pyrrolo[2,3-b]pyridin-2-yl)ethyl)-1,2,3,6-tetrahydropyridin-4-yl)benzamide]: 3290 nM; for `CNc1ccc(-c2ccnc3c2cc([C@@H](C)N2CC=C(c4c(C)cc(C(=O)N(C)C)cc4F)CC2)n3C)nc1` [Example 1z41, (R)-3-fluoro-N,N,5-trimethyl-4-(1-(1-(1-methyl-4-(5-(methyl-amino)pyridin-2-yl)-1H-pyrrolo[2,3-b]pyridin-2-yl)ethyl)-1,2,3,6-tetrahydropyridin-4-yl)benzamide]: 110 nM. On the same count and under the same terms, for `CN(C)C(=O)c1cc(F)c(C2=CCN(Cc3cc4c(-c5ccc(N)nc5C#N)ccnc4n3C)CC2)c(F)c1` [Example 1z42, 4-(1-((4-(6-amino-2-cyanopyridin-3-yl)-1-methyl-1H-pyrrolo[2,3-b]pyridin-2-yl)methyl)-1,2,3,6-tetrahydropyridin-4-yl)-3,5-difluoro-N,N-dimethylbenzamide] the value was 97.3 nM; for `[2H]C([2H])([2H])N(C(=O)c1cc(C)c(C2=CCN([C@@H](C)c3cc4c(-c5ccc(NC)nn5)ccnc4n3C)CC2)c(F)c1)C([2H])([2H])[2H]` [Example 1z44, (S)-3-fluoro-5-methyl-N,N-bis(methyl-d3)-4-(1-(1-(1-methyl-4-(6-(methylamino)-pyridazin-3-yl)-1H-pyrrolo[2,3-b]pyridin-2-yl)ethyl)-1,2,3,6-tetrahydropyridin-4-yl)benzamide], 39.5 nM. Still for that read-out and setting: the same measure for `CN(C)C(=O)c1ccc(C2=CCN(Cc3cc4c(-c5ccc(N)nc5)ccnc4n3C)CC2)c(OC(F)(F)F)c1` [Example 1z45, 4-(1-((4-(6-aminopyridin-3-yl)-1-methyl-1H-pyrrolo[2,3-b]pyridin-2-yl)methyl)-1,2,3,6-tetrahydropyridin-4-yl)-N,N-dimethyl-3-(trifluoromethoxy)benzamide]: 798 nM.

The term Kd denotes the equilibrium constant for the complex coming apart. The term EC50 denotes the concentration giving half of the maximal effect.
